Measured values as given in US11596639B2, “Substituted indole Mcl-1 inhibitors” (Vanderbilt University, priority 2016, dated 2023).
Where two headings read alike, the source gives them in different places.

Key:
[1] = test system: H929 human cancer cell lines; experiment: Cellular viability / proliferation (Cell TiterGlo, 72 h); format: cell-based
In short: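 Compounds were added as 2-fold serial dilutions from 50 μM (final DMSO <1%) to H929 cells seeded 1,000 per well in 10% FBS medium one day earlier.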

Mcl-1 = Mcl-1 (Homo sapiens (Human), UniProt Q07820); experiment: Fluorescence polarization anisotropy (FPA) competition assay, FITC-Bak or FITC-Bim BH3 peptide; format: binding; conditions: read-out: Ki for Inhibition of Mcl-1 by FPA assay
[2] = Homo sapiens, NCI-H929, 72 h, read-out: GI50 on cellular proliferation of H929 human cancer cell lines, H929 cells, 72 h, Cell TiterGlo, 10% FBS

Sequence of Mcl-1 (Q07820 172-327): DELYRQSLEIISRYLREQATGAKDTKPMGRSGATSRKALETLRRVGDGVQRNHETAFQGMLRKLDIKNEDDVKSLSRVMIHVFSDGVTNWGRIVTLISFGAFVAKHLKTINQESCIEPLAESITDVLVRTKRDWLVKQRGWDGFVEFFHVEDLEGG

Row | SMILES | GI50 [1, 2] | Ki (Mcl-1) | GI50 ([1]; read-out: GI50 on cellular proliferation of H929 human cancer cell lines, H929 cells, 72 h, Cell TiterGlo, 10% FBS)
1 | CNC(=O)c1ccc2c(c1)c(N1C[C@@H](C)n3c(c(CCCOc4cc(C)c(Cl)c(C)c4)c4ccc(Cl)c(-c5c(C)nn(C)c5C)c43)C1=O)cn2C [Example 286, (R)-3-(7-chloro-10-(3-(4-chloro-3,5-dimethylphenoxy)propyl)-4-methyl-1-oxo-6-(1,3,5-trimethyl-1H-pyrazol-4-yl)-3,4-dihydropyrazino[1,2-a]indol-2(1H)-yl)-N,1-dimethyl-1H-indole-5-carboxamide] | 510 nM | 3.3 nM | 
2 | Cc1cc(OCCCc2c3n(c4c(-c5c(C)nn(C)c5C)c(Cl)ccc24)[C@H](C)CN(c2cccc4c2c(C(=O)O)nn4C)C3=O)cc(C)c1Cl [Example 125, 4-[(4R)-7-chloro-10-[3-(4-chloro-3,5-dimethyl-phenoxy)propyl]-4-methyl-1-oxo-6-(1,3,5-trimethylpyrazol-4-yl)-3,4-dihydropyrazino[1,2-a]indol-2-yl]-1-methyl-indazole-3-carboxylic acid] | 7600 nM | < 1 nM | 
3 | Cc1cc(OCCCc2c3n(c4c(-c5c(C)nn(C)c5C)c(Cl)ccc24)CCCN(c2ccc4c(C(=O)O)cn(C)c4c2)C3=O)cc(C)c1Cl [Example 81, 6-(8-Chloro-11-(3-(4-chloro-3,5-dimethylphenoxy)propyl)-1-oxo-7-(1,3,5-trimethyl-1H-pyrazol-4-yl)-4,5-dihydro-1H-[1,4]diazepino[1,2-a]indol-2(3H)-yl)-1-methyl-1H-indole-3-carboxylic acid] | 2900 nM | 2.4 nM | 
4 | Cc1cc(OCCCc2c3n(c4c(-c5c(C)nn(C)c5C)c(Cl)ccc24)[C@H](C)CN(c2cn(C)c4ccc(C5=NCCO5)cc24)C3=O)cc(C)c1Cl [Example 428, (R)-7-Chloro-10-(3-(4-chloro-3,5-dimethylphenoxy)propyl)-2-(5-(4,5-dihydrooxazol-2-yl)-1-methyl-1H-indol-3-yl)-4-methyl-6-(1,3,5-trimethyl-1H-pyrazol-4-yl)-3,4-dihydropyrazino[1,2-a]indol-1(2H)-one] | 920 nM | 2 nM | 
5 | Cc1cc(OCCCc2c3n(c4c(-c5c(C)nn(C)c5C)c(Cl)ccc24)[C@H](C)CN(c2cn(C)c4ccc(-c5nnc(C6CC6)o5)cc24)C3=O)cc(C)c1Cl [Example 423, (R)-7-Chloro-10-(3-(4-chloro-3,5-dimethylphenoxy)propyl)-2-(5-(5-cyclopropyl-1,3,4-oxadiazol-2-yl)-1-methyl-1H-indol-3-yl)-4-methyl-6-(1,3,5-trimethyl-1H-pyrazol-4-yl)-3,4-dihydropyrazino[1,2-a]indol-1(2H)-one] | 1700 nM | 2.3 nM | 
6 | Cc1cc(OCCCc2c3n(c4c(-c5c(C)nn(C)c5C)c(Cl)ccc24)[C@H](C)CN(c2cn(C)c4ccc(-c5n[nH]c(=O)o5)cc24)C3=O)cc(C)c1Cl [Example 444, (R)-5-(3-(7-Chloro-10-(3-(4-chloro-3,5-dimethylphenoxy)propyl)-4-methyl-1-oxo-6-(1,3,5-trimethyl-1H-pyrazol-4-yl)-3,4-dihydropyrazino[1,2-a]indol-2(1H)-yl)-1-methyl-1H-indol-5-yl)-1,3,4-oxadiazol-2(3H)-one] | 220 nM | 1.3 nM | 
7 | Cc1cc(OCCCc2c3n(c4c(-c5c(C)nn(C)c5C)c(Cl)ccc24)[C@H](C)CN(c2cn(C)c4cc(-c5nn[nH]n5)ccc24)C3=O)cc(C)c1Cl [Example 236, (R)-7-chloro-10-(3-(4-chloro-3,5-dimethylphenoxy)propyl)-4-methyl-2-(1-methyl-6-(2H-tetrazol-5-yl)-1H-indol-3-yl)-6-(1,3,5-trimethyl-1H-pyrazol-4-yl)-3,4-dihydropyrazino[1,2-a]indol-1(2H)-one] | 1100 nM | < 1 nM | 
8 | CCn1cc(C(=O)O)c2c(N3C[C@@H](C)n4c(c(CCCOc5cc(C)c(Cl)c(C)c5)c5ccc(Cl)c(-c6c(C)nn(C)c6C)c54)C3=O)cccc21 [Example 173, 4-[(4R)-7-chloro-10-[3-(4-chloro-3,5-dimethyl-phenoxy)propyl]-4-methyl-1-oxo-6-(1,3,5-trimethylpyrazol-4-yl)-3,4-dihydropyrazino[1,2-a]indol-2-yl]-1-ethyl-indole-3-carboxylic acid] | 3300 nM | 2.7 nM | 
9 | Cc1cc(OCCCc2c3n(c4c(-c5c(C)nn(C)c5C)c(Cl)ccc24)[C@H](C)CN(c2cc(OC(F)(F)F)cc4cc(C(=O)O)[nH]c24)C3=O)cc(C)c1Cl [Example 469, (R)-7-(7-Chloro-10-(3-(4-chloro-3,5-dimethylphenoxy)propyl)-4-methyl-1-oxo-6-(1,3,5-trimethyl-1H-pyrazol-4-yl)-3,4-dihydropyrazino[1,2-a]indol-2(1H)-yl)-5-(trifluoromethoxy)-1H-indole-2-carboxylic acid] | 3300 nM | 2.2 nM | 
10 | Cc1cc(OCCCc2c3n(c4c(-c5c(C)nn(CCN6CCCC6)c5C)c(Cl)ccc24)[C@H](C)CN(c2cn(C)c4ccc(C(N)=O)cc24)C3=O)cc(C)c1Cl [Example 392, (R)-3-(7-chloro-10-(3-(4-chloro-3,5-dimethylphenoxy)propyl)-6-(3,5-dimethyl-1-(2-(pyrrolidin-1-yl)ethyl)-1H-pyrazol-4-yl)-4-methyl-1-oxo-3,4-dihydropyrazino[1,2-a]indol-2(1H)-yl)-1-methyl-1H-indole-5-carboxamide] | 950 nM | 23 nM | 
11 | COc1cc(C(=O)O)cc(N2CCCn3c(c(CCCOc4cc(C)c(Cl)c(C)c4)c4ccc(Cl)c(-c5c(C)nn(C)c5C)c43)C2=O)c1OCCCO [Example 67, 3-[8-Chloro-11-[3-(4-chloro-3,5-dimethyl-phenoxy)propyl]-1-oxo-7-(1,3,5-trimethylpyrazol-4-yl)-4,5-dihydro-3H-[1,4]diazepino[1,2-a]indol-2-yl]-4-(3-hydroxypropoxy)-5-methoxy-benzoic acid] | 8500 nM | < 1 nM | 
12 | Cc1cc(OCCCc2c3n(c4c(-c5c(C)nn(C)c5C)c(Cl)ccc24)[C@H](C)CN(c2cc(C(=O)O)c4ccn(CCN5CCOCC5)c4c2)C3=O)cc(C)c1Cl [Example 94, (R)-6-(7-chloro-10-(3-(4-chloro-3,5-dimethylphenoxy)propyl)-4-methyl-1-oxo-6-(1,3,5-trimethyl-1H-pyrazol-4-yl)-3,4-dihydropyrazino[1,2-a]indol-2(1H)-yl)-1-(2-morpholinoethyl)-1H-indole-4-carboxylic acid] | 1500 nM | < 1 nM | 
13 | Cc1cc(OCCCc2c3n(c4c(-c5c(C)nc(CN6CCNCC6)nc5C)c(Cl)ccc24)[C@H](C)CN(c2cn(C)c4ccc(C(=O)O)cc24)C3=O)cc(C)c1Cl [Example 441, (R)-3-(7-Chloro-10-(3-(4-chloro-3,5-dimethylphenoxy)propyl)-6-(4,6-dimethyl-2-(piperazin-1-ylmethyl)pyrimidin-5-yl)-4-methyl-1-oxo-3,4-dihydropyrazino[1,2-a]indol-2(1H)-yl)-1-methyl-1H-indole-5-carboxylic acid] | 4600 nM | 7 nM | 
14 | Cc1cc(OCCCc2c3n(c4c(-c5c(C)nn(C)c5C)c(Cl)ccc24)[C@H](C)CN(c2cn(C)c4ccc(-c5ncccn5)cc24)C3=O)cc(C)c1Cl [Example 394, (R)-7-Chloro-10-(3-(4-chloro-3,5-dimethylphenoxy)propyl)-4-methyl-2-(1-methyl-5-(pyrimidin-2-yl)-1H-indol-3-yl)-6-(1,3,5-trimethyl-1H-pyrazol-4-yl)-3,4-dihydropyrazino[1,2-a]indol-1(2H)-one] | 270 nM | 2.8 nM | 
15 | Cc1cc(OCCCc2c3n(c4c(-c5c(C)nn(C)c5C)c(Cl)ccc24)[C@H](C)CN(c2cccc4c(C(=O)O)nn(C)c24)C3=O)cc(C)c1Cl [Example 59, (R)-7-(7-chloro-10-(3-(4-chloro-3,5-dimethylphenoxy)propyl)-4-methyl-1-oxo-6-(1,3,5-trimethyl-1H-pyrazol-4-yl)-3,4-dihydropyrazino[1,2-a]indol-2(1H)-yl)-1-methyl-1H-indazole-3-carboxylic acid] | 280 nM | < 1 nM | 
16 | Cc1cc(OCCCc2c3n(c4c(-c5c(C)nn(C)c5C)c(Cl)ccc24)[C@H](C)CN(c2cc(Cl)cc4c(C(=O)O)cn(C)c24)C3=O)cc(C)c1Cl [Example 449, (R)-5Chloro-7-(7-chloro-10-(3-(4-chloro-3,5-dimethylphenoxy)propyl)-4-methyl-1-oxo-6-(1,3,5-trimethyl-1H-pyrazol-4-yl)-3,4-dihydropyrazino[1,2-a]indol-2(1H)-yl)-1-methyl-1H-indole-3-carboxylic acid] | 1200 nM | 2.6 nM | 
17 | Cc1cc(OCCCc2c3n(c4c(-c5c(C)nn(C)c5C)c(Cl)ccc24)[C@H](C)CN(c2cn(C)c4ccc(C(=O)N(C)C)cc24)C3=O)cc(C)c1Cl [Example 289, 3-[(4R)-7-chloro-10-[3-(4-chloro-3,5-dimethyl-phenoxy)propyl]-4-methyl-1-oxo-6-(1,3,5-trimethylpyrazol-4-yl)-3,4-dihydropyrazino[1,2-a]indol-2-yl]-N,N,1-trimethyl-indole-5-carboxamide] | 5200 nM | 15 nM | 
18 | Cc1cc(OCCCc2c3n(c4c(-c5c(C)nn(C)c5C)c(Cl)ccc24)[C@H](C)CN(c2cccc4c(C(=O)O)cn(C)c24)C3=O)cc(C)c1Cl [Example 214, (R)-7-(7-chloro-10-(3-(4-chloro-3,5-dimethylphenoxy)propyl)-4-methyl-1-oxo-6-(1,3,5-trimethyl-1H-pyrazol-4-yl)-3,4-dihydropyrazino[1,2-a]indol-2(1H)-yl)-1-methyl-1H-indole-3-carboxylic acid] |  | < 1 nM | 380 nM
19 | Cc1cc(OCCCc2c3n(c4c(-c5c(C)nn(C)c5C)c(Cl)ccc24)[C@H](C)CN(c2cccc4cccc(C(=O)O)c24)C3=O)cc(C)c1Cl [Example 191, (R)-8-(7-Chloro-10-(3-(4-chloro-3,5-dimethylphenoxy)propyl)-4-methyl-1-oxo-6-(1,3,5-trimethyl-1H-pyrazol-4-yl)-3,4-dihydropyrazino[1,2-a]indol-2(1H)-yl)-1-naphthoic acid] | 3200 nM | < 1 nM | 
